For series [1], the system named is DLD-1 BRCA2 KO (BRCA2 deletion) cells. As to the kind of experiment: Clonogenic assay, DLD-1 BRCA2 KO. The conditions noted are these: for IC90: Homo sapiens, 3 h. It is filed as cell-based. Here is the method:
(§1) The following PSN-1 cells, PANC1 cells, MiaPaCa-2 cells, H460 cells, DLD-1 WT (wild type) cells, DLD-1 BRCA2 KO (BRCA2 deletion) cells were seeded in 10 cm vitreous cell culture plates at specific cell numbers and incubated for 2 days at 37° C. and under the conditions of 5% CO2, 95% air and 100% relative humidity. On day 3, test compounds TH302 or AST-002-P2 at the specific concentrations were added to the cells, and incubated for 3 hours together with the cells under normoxic (21% O2) and hypoxic conditions (<0.01% O2), respectively. After cells were stimulated by compounds, the cells were washed once with 1×PBS and digested into single cells with pancreatic enzymes for cell counting. The above cells in specific cell numbers were reseeded in a new culture plate and cultured for 7 days to perform single cell colony formation. When single cells in compound culture plates stimulated under normoxic conditions proliferated to about 50 cells, the cultures were removed and stained with 0.5% crystal violet for 40 minutes. After staining, cells were counted for colonies using Colony Counter (VWR) and the IC90 was calculated.

The target of the next series is T1, CYP450R enzyme (Homo sapiens, UniProt P16435).
T1 sequence (P16435 1-677): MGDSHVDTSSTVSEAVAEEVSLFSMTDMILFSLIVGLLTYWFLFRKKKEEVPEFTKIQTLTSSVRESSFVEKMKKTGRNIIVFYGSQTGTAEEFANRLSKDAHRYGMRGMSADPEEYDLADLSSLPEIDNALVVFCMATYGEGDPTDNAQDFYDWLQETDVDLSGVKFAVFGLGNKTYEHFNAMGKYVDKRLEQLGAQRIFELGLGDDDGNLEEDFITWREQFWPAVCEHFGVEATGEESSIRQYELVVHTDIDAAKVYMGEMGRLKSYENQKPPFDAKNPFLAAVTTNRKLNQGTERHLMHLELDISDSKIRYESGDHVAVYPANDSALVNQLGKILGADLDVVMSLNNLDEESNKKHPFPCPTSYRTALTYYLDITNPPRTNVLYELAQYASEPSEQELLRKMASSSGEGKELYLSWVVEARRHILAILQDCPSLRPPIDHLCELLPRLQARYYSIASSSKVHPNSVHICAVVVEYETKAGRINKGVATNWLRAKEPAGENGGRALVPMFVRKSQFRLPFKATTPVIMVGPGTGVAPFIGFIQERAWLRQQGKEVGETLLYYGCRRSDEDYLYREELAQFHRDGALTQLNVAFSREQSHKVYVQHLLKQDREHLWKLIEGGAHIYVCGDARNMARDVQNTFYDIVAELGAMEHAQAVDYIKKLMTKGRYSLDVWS
As to the kind of experiment: Hypoxia-dependent reduction experiments. The class given is biochemical. The settings on record: for reduction rate compared (compound A vs TH-302): NADPH and CYP 450R enzymes. Here is the method:
The ingredients were added to each test tube without the addition of NADPH. Then 50 μl of sample from condition B was transferred to 100 μl acetonitrile (T=0). For samples to be tested under hypoxic conditions, the test tubes were placed in an hypoxic chamber (BACTRON anaerobic/environmental chamber). The reaction was initiated by adding NADPH to test tubes A and C and the sample was then placed at 37° C. For samples to be tested in air, the test tubes were placed in a hot plate at 37° C. After 30 minutes and 2 hours of incubation, 50 μl of samples were taken from each test tube and mixed with 100 μl acetonitrile. Any protein precipitate was removed by spinning all test tubes and placed into HPLC vials for analysis. The results were compared to the calibration curve of the real standard.

In another series the test system is H460 cells. As to the kind of experiment: Clonogenic assay, H460. The class given is cell-based, human. The settings on record: for IC90: Homo sapiens, NCI-H460, 3 h; for HCR: IC90 ratio normoxic/N2. Here is the method:
as §1

The test system of the next series is AA8. As to the kind of experiment: Cell inhibition of different species, normoxic, AA8. It is filed as cell-based, Rat. The settings on record: IC50 AA8/H460. The source says: To further compare the cytotoxicity of TH-302 with that of compound A, the following further provide test results for H460 cell line and cells from different species at different test times in the same laboratory, with the same operator and under the same experimental conditions.

The next series has as its system PSN-1 cells. As to the kind of experiment: Clonogenic assay, PSN-1. The conditions noted are these: for IC90: Homo sapiens, PSN1, 3 h; for HCR: IC90 ratio normoxic/N2. The class given is cell-based, human. Here is the method: as §1
Another series can be described thus: Plasma stability, human. The class given is in vitro ADME. The conditions noted are these: for Remaining percentage: after 30 minutes, 5 μM, 37° C.; for plasma stability: human plasma. Here is the method:
The pH of the plasma was checked and recorded. Note: a.
The final concentration of solvent was 0.5%.
The assay is performed in duplicate.

The next series can be described thus: Plasma stability, dog. The settings on record: for Remaining percentage: after 30 minutes. Here is the method:
The frozen plasma was immediately melted in a water bath of 37° C. The plasma was centrifuged at 3, 220 g for 10 minutes to remove the blood clots and the supernatant was collected into a new test tube. The pH of the plasma was checked and recorded. Note: a. Only plasma that has been melted no more than twice since arrival was used; b. Only plasma in the range of pH 7 to pH 8 was used.
1 mM of working solutions of the test compound and the control compound mevinolin were prepared in DMSO. 1 mM of the working solution of the control compound solution in […] was prepared in acetonitrile. 4 μL of the working solution was added to 796 μL of pre-incubated plasma to achieve 5 μM of final concentration. The final concentration of solvent was 0.5%.
The aliquots of 50 μL of the standard addition plasma were added to new test tubes and incubated in the water bath of 37° C. at approximately 60 rpm for 2 hours. The assay is performed in duplicate. At the end of the two hour incubation, 300 μL of quenched solution at room temperature (acetonitrile containing internal standards (acetonitrile, 100 nM Alprazolam, 500 nM Labetalol and 2 μM ketoprofen)) was added to terminate the reaction. Samples at time 0 were prepared by adding 50 μL of standard addition plasma to the new test tubes with 300 μL of quenched solution at room temperature. The test tubes were mixed by vortex for 5 minutes. The samples in the plates were centrifuged at 3, 220×g for 30 minutes at 4° C. to precipitate the proteins. 100 μL of supernatant was transferred to a new plate. The supernatant was diluted with 100 μL of water, mixed well and analysed using LC-MS/MS.

Setting [2] is: 21% O2, read-out: IC90 Normoxia.
[3] abbreviates: <0.01% O2, read-out: IC90 Hypoxia.

Several values for one entry are separate records, joined by “and”; a condition that tells them apart may be missing. Equal values may be shown once. Read-outs that look alike come from different tables or passages of the source. Marks after values point to notes of the source that are not given here. Where only a bound is given, the exact number is not on record here.

What is called IC90 is the concentration at which the effect reaches the 90% level. In the case of `Cn1c(COP(=O)(NCCBr)NCCBr)cnc1[N+](=O)[O-]` [TH-302, Evofosfamide], the IC90 in series [1] (setting [2]) is 21900 nM; in series [1] (setting [3]) it was 3.01 nM; with H460 cells (setting [2]), 15600 nM; with H460 cells (setting [3]), 21 nM; in the series with PSN-1 cells (setting [2]) it was 30500 nM; with PSN-1 cells (setting [3]), 164 nM. Moreover, the HCR came out at 7277 in series [1] (IC90 ratio normoxic/N2), 741 in the series with H460 cells and 186 in the series on PSN-1 cells. The “reduction rate compared (compound A vs TH-302)” value at CYP450R enzyme was “similar”. The “Multiplier: Rat/Human” value in the series with AA8 (exposure 2 h) was determined as 41.5.

As for `CC(OP(=O)(N1CC1)N1CC1)c1ccc([N+](=O)[O-])c2ccccc12` (stereo not drawn) [Compound D], the Remaining percentage in the series “Plasma stability, human” (Human plasma) is recorded as 97.06%; in the series “Plasma stability, dog” (Dog plasma) it was 91.95%. In addition, the “plasma stability” value is given as “secondarily” in “Plasma stability, human” and “relatively stable” in the series “Plasma stability, dog” (dog plasma).

Regarding `O=[N+]([O-])c1ccc(C(OP(=O)(N2CC2)N2CC2)C(F)(F)F)c2ccccc12` (racemic) [Compound A], the “Remaining percentage (%)” value in the series “Plasma stability, human” (Human plasma, 15 min) is 108 ± 0.773%; in the series “Plasma stability, human” (Human plasma, 60 min), 99.2 ± 3.39%; in “Plasma stability, human” (Human plasma, 90 min), 93.8 ± 3.12%; in the series “Plasma stability, human” (Human plasma, 120 min), 89.7% and 89.7 ± 4.43%; in the series “Plasma stability, human” (Human plasma, 2 h time course, 0 min), 100%; in “Plasma stability, human” (Human plasma, time course, 30 min) it was 102 ± 3.85%. For the same compound, the “Remaining percentage (%)” value in “Plasma stability, dog” (Dog plasma, 15 min) is 107 ± 2.54%; in “Plasma stability, dog” (Dog plasma, 60 min), 101 ± 5.20%; in the series “Plasma stability, dog” (Dog plasma, 90 min), 105 ± 3.67%; in the series “Plasma stability, dog” (Dog plasma, 120 min), 98.9% and 98.9 ± 0.476%; in the series “Plasma stability, dog” (Dog plasma, 2 h time course, 0 min), 100%; in “Plasma stability, dog” (Dog plasma, time course, 30 min), 105 ± 1.27%. In addition, the Remaining percentage in “Plasma stability, human” (Human plasma) was determined as 68.68%; in the series “Plasma stability, dog” (Dog plasma), 85.04%. The t½ in the series “Plasma stability, human” (Human plasma, in vitro) is given as >373* min; in the series “Plasma stability, dog” (Dog plasma, in vitro), >373* min. The half-life at 5 µM in the series “Plasma stability, human” (Human plasma, in vitro, read-out: t½) is more than 6.22 h; in “Plasma stability, dog” (dog plasma), more than 6.22 h. In addition, the “plasma stability” value in “Plasma stability, human” is “stable”; in the series “Plasma stability, dog” (dog plasma) it was “stable”. On CYP450R enzyme, the “reduction rate compared (compound A vs TH-302)” value is recorded as “similar”. In addition, the hypoxia-dependent reduction reaction entry on CYP450R enzyme (in the presence of NADPH and CYP 450R enzymes, 37° C.) is given as “showed a hypoxia-dependent reduction reaction”. Besides, the “Multiplier: Rat/Human” value in the series with AA8 (exposure 3 days) is 110.

In the case of `O=[N+]([O-])c1ccc([C@@H](OP(=O)(N2CC2)N2CC2)C(F)(F)F)c2ccccc12` (single isomer, unassigned) [Compound C], the 90% effect concentration (IC90) in series [1] (setting [2]) was more than 10000 nM; in series [1] (setting [3]), 112 nM; in the series with H460 cells (setting [2]) it was 66 nM; in the series with H460 cells (setting [3]) it was 41 nM; with PSN-1 cells (setting [2]), more than 1000 nM; with PSN-1 cells (setting [3]), 286 nM. For the same compound, the HCR in series [1] (IC90 ratio normoxic/N2) is given as more than 89; in series [1] (IC90 ratio normoxic/N2, listed as compound C) it was more than 89; with H460 cells, 1.6; in the series on PSN-1 cells it was more than 3.5.

The record behind these values is patent US20230339991A1, “HYPOXIA-ACTIVATED DNA ALKYLATING AGENT AND MEDICAL USE THEREOF” (ASCENTAWITS PHARMACEUTICALS, LTD., priority 2020, published 2023).
